From PMC10590383, “Repurposing conformational changes in ANL superfamily enzymes to rapidly generate biosensors for organic and amino acids” (Nature Communications, 2023)

Test: Dose–response curve of purified […]s with histidine
Type: biochemical
Parameters: key to Dose-response, AVE of Repeat 1-3 (Fig. 3 k): normalized ΔF/F0 (fluorescence change over baseline)
Protocol: Fig. 3 Dose–response curves and fluorescence spectrums of […]s. a, c, e, g, i, k Dose–response curve of purified […]s with increasing concentrations of ligand in 100 mM Tris-HCl buffer (pH=7.5). The normalized ΔF/F0 value increased after ligand binding. All data shown are mean ± S.D. (n = 3 biologically independent samples). b, d, f, h, j, l The fluorescence spectra of […]s changed as the ligand concentration increased. All data shown are mean ± S.D. (n = 3 biologically independent samples). Source data are provided as a Source data file.
The study conducted dose–response curve, substrate specificity, and fluorescent spectrum analyses in 100-mM Tris buffer (pH = 7.5), while pH stability experiments were performed in 100-mM Tris buffer at three different pH values (6.5, 7.5, and 8.5) at room temperature. […] protein at a concentration of 0.75 μM, various small molecule concentrations, 1 mM ATP, and 2.5 mM MgCl2 were used in the experiments. Fluorescent signals were detected using a Microplate Reader (Synergy H4, Bio Tek) at an excitation/emission wavelength of 460 nm/510 nm or 480 nm/510 nm. The dose-response curve was determined immediately after the addition of the analyte. The total duration of the measurement was 15 min, with readings taken at one-minute intervals. The dose-response curve was plotted using the fluorescence values obtained after achieving stability in the fluorescence signal. The dose-response curves were fitted using the logistic model LOGISTIC5 available in Origin 2021, which could provide a more adequate fit to asymmetric dose-response data[62],[63]. Excitation spectra were scanned from 300 to 540 nm with a step size of 5 nm, and the emission wavelength was set to 560 nm. Emission spectra were scanned from 470 to 700 nm with a step size of 5 nm, and the excitation wavelength was set to 450 nm. The thermal stability of […] was analyzed using the UNcle multifunctional protein stability analysis system. Measurements were performed in 20 mM MOPS buffer with 2 mM DTT at a sample concentration of 1 mg/mL. Absolute fluorescence quantum yields were measured using an absolute photoluminescence quantum yield spectrometer (FS5, Edinburgh). […]
Supplementary Fig. 2 Dose–response curves and fl uorescen ce spectr ums of GEC FINDERs. a and c, Dose– re spons e curves of puri fi ed GECF INDE R-P he1 and 2 with increas ing concen tra tions of phenylalanine (1 nM to 100 μM). The norm alized ΔF/F 0 value increas ed aft er phenylalanine binding (4 60 nm excita tion) . b and d, The fl uore scen ce spect ra of GECF IN DER-P he1 and 2 changed as the phe nylalanine concen tra tion incre ased fro m 1 nM to 100 μM. e and g, Dose–re spon se curv es of puri fied GECF IN DER-Il e1 and 2 with increas ing concen tra tio ns of isoleucine (50 nM to 10 mM). The norm alized ΔF/F 0 value increas ed aft er isoleucine binding (4 80 nm excita tion) . f and h, The fl uore scen ce spect ra of GECF INDE R-Il e1 and 2 change d as the isoleucine concen tration increas ed fro m 0.5 μM to 10 mM. i, Dose–re spon se curv e of puri fi ed GECF INDE R-H is1 with increas ing concen tra tio ns of histid ine (5 nM to 1 mM). The Norm alized ΔF/F 0 increas ed aft er histidine binding (480 nm excita tion). j, The fl uore scen ce spect ra of GECFIN DER-H is1 changed as the histid ine concen tra tion increas ed fro m 5 nM to 1 mM. k, Diffe re nce in fl uore scen ce intensity of GECF INDE R-b enzoic aci d in the pre sence of 10 µM benzoic aci d compare d to the cont ro l (0 µM benzoic aci d). […] (n=3 biological ly independent samples). *p ≤ 0.05, ***p ≤ 0.001, ****p ≤ 0.0001, and n.s. indicat ed no signifi can t diffe re nce (S tude nt’s two-t aile d t-t est). Source data are provi ded as a Source Data file . […]

Compound: N[C@@H](Cc1cnc[nH]1)C(=O)O [His]
- Dose-response, AVE of Repeat 1-3 (Fig. 3 k) (His 0.005 μM): -4.366e-17
- Dose-response, AVE of Repeat 1-3 (Fig. 3 k) (His 0.01 μM): 0.01906
- Dose-response, AVE of Repeat 1-3 (Fig. 3 k) (His 0.05 μM): 0.01899
- Dose-response, AVE of Repeat 1-3 (Fig. 3 k) (His 0.5 μM): 0.05174
- Dose-response, AVE of Repeat 1-3 (Fig. 3 k) (His 5 μM): 0.1739
- Dose-response, AVE of Repeat 1-3 (Fig. 3 k) (His 10 μM): 0.234
- Dose-response, AVE of Repeat 1-3 (Fig. 3 k) (His 25 μM): 0.2903
- Dose-response, AVE of Repeat 1-3 (Fig. 3 k) (His 50 μM): 0.3383
- Dose-response, AVE of Repeat 1-3 (Fig. 3 k) (His 100 μM): 0.377
- Dose-response, AVE of Repeat 1-3 (Fig. 3 k) (His 500 μM): 0.4545
- Dose-response, AVE of Repeat 1-3 (Fig. 3 k) (His 750 μM): 0.4382
- Dose-response, AVE of Repeat 1-3 (Fig. 3 k) (His 1000 μM): 0.4348
- fluorescence intensity, AVE of 3 repeats (Supplementary Fig. 3 h, His 0.75 mM): 10877
